Measured values from patent publication US8552161B2, “Saponin compounds, methods of preparation thereof, use thereof and pharmaceutical compositions” (Uniwersytet W Bialymstoku, priority 2009, dated 2013).

Experiments:
[1] = system: human glioblastoma cell line T98; experiment: Calcein AM cytotoxicity assay, T98; type: cell-based; settings: 72 h, means ± SD, three independent experiments in triplicate
Protocol: (§1) Stock solutions (10 mmol/l) of the tested compounds were prepared by dissolving relevant quantity of the substance in DMSO. Dulbecco's modified Eagle's medium (DMEM, RPMI 1640, F-12 medium), fetal bovine serum (FBS), L-glutamine, penicillin, streptomycin were purchased from Sigma (MO, USA). Calcein AM was obtained from Molecular Probes (Invitrogen Corporation, CA, USA).
(§2) The screening cell lines (T-lymphoblastic leukaemia cell line CEM, breast carcinoma cell line MCF-7, cervical carcinoma cell line HeLa, human glioblastoma cell line T98, human malignant melanoma G-361, human osteogenic sarcoma cell line HOS, carcinomic human alveolar basal epithelial cells A549, human colon carcinoma cells HCT 116 and human fibroblasts BJ) were obtained from the American Type Culture Collection (Manassas, Va., USA). All cell lines were cultured in DMEM medium (Sigma, Mo., USA). Medium was supplemented with 10% heat-inactivated fetal bovine serum, 2 mmol/l L-glutamine and 1% penicillin-streptomycin. The cell lines were maintained under standard cell culture conditions at 37° C. and 5% CO2 in a humid environment. Cells were subcultured twice or three times a week using the standard trypsinization procedure.
Cytotoxic activities of the novel compounds, obtained according to this invention, were tested in vitro against following cancer cell lines: T-lymphoblastic leukemia cell line CEM; breast carcinoma cell line MCF7, lung carcinoma cell line A549, cervical carcinoma cell line HeLa, malignant melanoma cell line G-361, osteosarcoma cell line HOS, human glioblastoma cell line T98, human colon carcinoma cells HCT 116 and normal human fibroblasts BJ. All cell lines were cultured in DMEM medium (Sigma, Mo., USA) supplemented with 10% fetal calf serum, 2 mM glutamine, 100 U/ml penicillin and 100 μg/ml streptomycin, at 37° C. in a fully humidified atmosphere containing 5% CO2. Suspensions of these lines (ca. 1.0×10^5 cells/ml) were placed in 96-well microtitre plates and after 3 h of stabilization the tested compounds were added in serially diluted concentrations. Saponins were dissolved in dimethylsulfoxide (DMSO) before addition to cultures. Control cultures were treated with DMSO alone. The final concentration of DMSO in the reaction mixtures never exceeded 0.6%. Four-fold dilutions of the intended test concentration were added at time zero in 20 μl aliquots to the microtitre plate wells. Usually, each test compound was evaluated at six 4-fold dilutions and in routine testing; the highest well concentration was 50 μM, although this varied in a few cases, depending on the test compound. After 72 h of culture, the cells were incubated with Calcein AM solution (Molecular Probes) for 1 h. The fluorescence of viable cells was quantified using a Fluoroscan Ascent instrument (Microsystems). The percentage of surviving cells in each well was calculated from the equation […]=(ODdrug exposed well/mean ODcontrol wells)×100%. The IC50 value, the drug concentration lethal to 50% of the tumour cells, was calculated from the obtained dose-response curves.

[2] = system: osteosarcoma cell line HOS; experiment: Calcein AM cytotoxicity assay, HOS; type: cell-based, human; settings: 72 h, means ± SD, three independent experiments in triplicate
Protocol: as §1, §2
(§3) Cytotoxic activities of the novel compounds, obtained according to this invention, were tested in vitro against following cancer cell lines: T-lymphoblastic leukemia cell line CEM; breast carcinoma cell line MCF7, lung carcinoma cell line A549, cervical carcinoma cell line HeLa, malignant melanoma cell line G-361, osteosarcoma cell line HOS, human glioblastoma cell line T98, human colon carcinoma cells HCT 116 and normal human fibroblasts BJ. […] Usually, each test compound was evaluated at six 4-fold dilutions and in routine testing; the highest well concentration was 50 μM, although this varied in a few cases, depending on the test compound. […] The fluorescence of viable cells was quantified using a Fluoroscan Ascent instrument (Microsystems). […]

[3] = system: cervical carcinoma cell line HeLa; experiment: Calcein AM cytotoxicity assay, HeLa; type: cell-based; settings: 72 h, means ± SD, three independent experiments in triplicate
Protocol: (§4) Stock solutions (10 mmol/l) of the tested compounds were prepared by dissolving relevant quantity of the substance in DMSO. […] Calcein AM was obtained from Molecular Probes (Invitrogen Corporation, CA, USA).
(§5) All cell lines were cultured in DMEM medium (Sigma, Mo., USA). Medium was supplemented with 10% heat-inactivated fetal bovine serum, 2 mmol/l L-glutamine and 1% penicillin-streptomycin. The cell lines were maintained under standard cell culture conditions at 37° C. and 5% CO2 in a humid environment. Cells were subcultured twice or three times a week using the standard trypsinization procedure.
(§6) All cell lines were cultured in DMEM medium (Sigma, Mo., USA) supplemented with 10% fetal calf serum, 2 mM glutamine, 100 U/ml penicillin and 100 μg/ml streptomycin, at 37° C. in a fully humidified atmosphere containing 5% CO2. Suspensions of these lines (ca. 1.0×10^5 cells/ml) were placed in 96-well microtitre plates and after 3 h of stabilization the tested compounds were added in serially diluted concentrations. Saponins were dissolved in dimethylsulfoxide (DMSO) before addition to cultures. Control cultures were treated with DMSO alone. The final concentration of DMSO in the reaction mixtures never exceeded 0.6%. Four-fold dilutions of the intended test concentration were added at time zero in 20 μl aliquots to the microtitre plate wells. Usually, each test compound was evaluated at six 4-fold dilutions and in routine testing; the highest well concentration was 50 μM, although this varied in a few cases, depending on the test compound. After 72 h of culture, the cells were incubated with Calcein AM solution (Molecular Probes) for 1 h. The fluorescence of viable cells was quantified using a Fluoroscan Ascent instrument (Microsystems).

[4] = system: malignant melanoma cell line G-361; experiment: Calcein AM cytotoxicity assay, G-361; type: cell-based, human; settings: 72 h, means ± SD, three independent experiments in triplicate
Protocol: as §4, §5, §6

[5] = system: normal human fibroblasts BJ; experiment: Calcein AM cytotoxicity assay, normal fibroblasts BJ; type: cell-based; settings: 72 h, means ± SD, three independent experiments in triplicate
Protocol: as §4, §5, §6

[6] = system: T-lymphoblastic leukemia cell line CEM; experiment: Calcein AM cytotoxicity assay, CEM; type: cell-based; settings: 72 h; for dose-dependent antiproliferative activity, number of viable cells (FIG. 1): CEM, increasing concentrations, Calcein AM; for IC50: Calcein AM assay, means ± SD, three independent experiments in triplicate
Protocol: as §4, §5, §6

[7] = system: breast carcinoma cell line MCF7; experiment: Calcein AM cytotoxicity assay, MCF7; type: cell-based, human; settings: for IC50: Calcein AM assay, 72 h, means ± SD, three independent experiments in triplicate; for dose-dependent antiproliferative activity, number of viable cells (FIG. 1): MCF7, 72 h, increasing concentrations, Calcein AM
Protocol: as §4, §5, §6

[8] = system: lung carcinoma cell line A549; experiment: Calcein AM cytotoxicity assay, A549; type: cell-based, human; settings: 72 h, means ± SD, three independent experiments in triplicate, read-out: IC50, A 549
Protocol: as §4, §5, §6

[9] = system: human colon carcinoma cells HCT 116; experiment: Calcein AM cytotoxicity assay, HCT 116; type: cell-based; settings: 72 h, means ± SD, three independent experiments in triplicate, read-out: IC50, HCT116
Protocol: as §1, §2, §3

[10] = system: leukemia HL-60 cancer cells; settings: cited from earlier work
P388 = settings: mice bearing P388, single administration of 0.01 mg/kg; cited from earlier work
[11] = system: human leukemia and pancreatic cancer cells; settings: cited from earlier work

CCCCCCCCCCCCCC(=O)OC[C@@H](C)[C@@]1(O)[C@@H](O[C@@H]2OC[C@H](O)[C@H](O[C@@H]3OC[C@@H](O)[C@H](O)[C@H]3OC(=O)c3ccc(OC)cc3)[C@H]2OC(C)=O)C[C@H]2[C@@H]3CC=C4C[C@@H](O)CC[C@]4(C)[C@H]3CC[C@@]21C [Compound 9, (20R)-21-O-tetradecanoyl-20-methylpregn-5-ene-3β,16β,17α,21-tetraol 16-O-{2-O-(4-methoxybenzoyl)β-D-xylopyranosyl-(1-43)-2′-O-acetyl-α-L-arabinopyranoside}]
IC50 [1]: 28 ± 1 nM
IC50 [2]: 2700 ± 600 nM
IC50 [3]: 67 ± 2 nM
IC50 [4]: 30 ± 10 nM
IC50 [5]: 83 ± 5 nM
dose-dependent antiproliferative activity, number of viable cells (FIG. 1) [6]: significantly reduce the number of living cells
IC50 [6]: 16 ± 5 nM
IC50 [7]: 48 ± 22 nM
dose-dependent antiproliferative activity, number of viable cells (FIG. 1) [7]: significantly reduce the number of living cells
IC50 [8]: 720 ± 70 nM
IC50 [9]: 2800 ± 400 nM

CCCCCCCCCCCCCCCCCC(=O)OC[C@@H](C)[C@@]1(O)[C@@H](O[C@@H]2OC[C@H](O)[C@H](O[C@@H]3OC[C@@H](O)[C@H](O)[C@H]3OC(=O)c3ccc(OC)cc3)[C@H]2OC(C)=O)C[C@H]2[C@@H]3CC=C4C[C@@H](O)CC[C@]4(C)[C@H]3CC[C@@]21C [Compound 10, (20R)-21-O-Octadecanoyl-20-methylpregn-5-ene-3β,16β,17α,21-tetraol 16-O-{2-O-(4-methoxybenzoyl)-β-D-xylopyranosyl-(1→3)-2′-O-acetyl-α-L-arabinopyranoside}]
IC50 [1]: 210 ± 50 nM
IC50 [3]: 435 ± 64 nM
IC50 [4]: 300 ± 100 nM
IC50 [5]: 80 ± 4 nM
dose-dependent antiproliferative activity, number of viable cells (FIG. 1) [6]: significantly reduce the number of living cells
IC50 [6]: 58 ± 1 nM
IC50 [7]: 195 ± 21 nM
dose-dependent antiproliferative activity, number of viable cells (FIG. 1) [7]: significantly reduce the number of living cells
IC50 [8]: 550 ± 180 nM

CC(C)CCC(=O)[C@@H](C)[C@@]1(O)[C@@H](O)C[C@H]2[C@@H]3CC=C4C[C@@H](O)CC[C@]4(C)[C@H]3CC[C@@]21C [OSW-1 aglycone, reference compound]
IC50 [1]: > 50000 nM
IC50 [2]: > 50000 nM
IC50 [3]: > 50000 nM
IC50 [4]: > 50000 nM
IC50 [5]: > 50000 nM
IC50 [6]: > 50000 nM
IC50 [7]: > 50000 nM
IC50 [8]: > 50000 nM
IC50 [9]: > 50000 nM

COc1ccc(C(=O)O[C@H]2[C@H](O[C@@H]3[C@@H](OC(C)=O)[C@H](O[C@H]4C[C@H]5[C@@H]6CC=C7C[C@@H](O)CC[C@]7(C)[C@H]6CC[C@]5(C)[C@@]4(O)[C@H](C)C(=O)CCC(C)C)OC[C@@H]3O)OC[C@@H](O)[C@@H]2O)cc1 [OSW-1, reference compound]
IC50 [1]: 70 ± 6 nM
cytotoxicity relative to clinically applied anticancer agents (mitomycin C, adriamycin, cisplatin, camptothecin, taxol) ([10]; HL-60): 10-100 times
cytotoxic activity, HL-60 ([10]; NCI tests): nanomolar concentrations
prolongation of life span (P388): 59%
IC50 [2]: 8200 ± 400 nM
IC50 [3]: 3.4 ± 0.3 nM
IC50 [4]: 1000 ± 100 nM
IC50 [5]: 0.2 nM
IC50 [6]: 3 ± 0.03 nM
IC50 [7]: 54.4 ± 0.2 nM
effect on mitochondria [11]: damaged the mitochondrial membrane and cristae
IC50 [8]: 27 ± 3 nM
IC50 [9]: 8400 ± 500 nM
